Laboratory results published in PubChem BioAssay AID2060510 (Molecular Pharmacology Branch, DTP, NCI, 2025).

Test system: 439559-082-T-J2-PDC spheroids viability
Experiment: Anticancer human tumor 439559-082-T-J2-PDC patient-derived colon adenocarcinoma cell line growth inhibition [GQUAD]
Conditions: for IC50: curve of first compound; for viability, T/C: stronger effect = lower value
Outline: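 Tumor cells were grown as complex spheroids with HUVEC endothelial cells and mesenchymal stem cells as stroma. G-quadruplex stabilizers were combined with targeted agents over half-log dilutions from near the clinical Cmax, or from 10 microM.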

[1] = second compound 0.0316 µM, first compound 0.0316 µM
[2] = second compound 0.0316 µM, first compound 0.1 µM
[3] = second compound 0.0316 µM, first compound 0.316 µM
[4] = second compound 0.0316 µM, first compound 1 µM
[5] = second compound 0.0316 µM, first compound 3.16 µM
[6] = second compound 0.0316 µM, first compound 10 µM
[7] = second compound 0.1 µM, first compound 0.0316 µM
[8] = second compound 0.1 µM, first compound 0.1 µM
[9] = second compound 0.1 µM, first compound 0.316 µM
[10] = second compound 0.1 µM, first compound 1 µM
[11] = second compound 0.1 µM, first compound 3.16 µM
[12] = second compound 0.1 µM, first compound 10 µM
[13] = second compound 0.316 µM, first compound 0.0316 µM
[14] = second compound 0.316 µM, first compound 0.1 µM
[15] = second compound 0.316 µM, first compound 0.316 µM
[16] = second compound 0.316 µM, first compound 1 µM
[17] = second compound 0.316 µM, first compound 3.16 µM
[18] = second compound 0.316 µM, first compound 10 µM
[19] = second compound 1 µM, first compound 0.0316 µM
[20] = second compound 1 µM, first compound 0.1 µM
[21] = second compound 1 µM, first compound 0.316 µM
[22] = second compound 1 µM, first compound 1 µM
[23] = second compound 1 µM, first compound 3.16 µM
[24] = second compound 1 µM, first compound 10 µM
[25] = second compound 3.16 µM, first compound 0.0316 µM
[26] = second compound 3.16 µM, first compound 0.1 µM
[27] = second compound 3.16 µM, first compound 0.316 µM
[28] = second compound 3.16 µM, first compound 1 µM
[29] = second compound 3.16 µM, first compound 3.16 µM
[30] = second compound 3.16 µM, first compound 10 µM
[31] = second compound 10 µM, first compound 0.0316 µM
[32] = second compound 10 µM, first compound 0.1 µM
[33] = second compound 10 µM, first compound 0.316 µM
[34] = second compound 10 µM, first compound 1 µM
[35] = second compound 10 µM, first compound 3.16 µM
[36] = second compound 10 µM, first compound 10 µM
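Note: spheroids exposed to the agents for 7 days before readout.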
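Throughout, for viability, T/C: percent of luminescence signal in DMSO vehicle wells taken as 100% viability.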

For `C=CCn1c(=O)c2cnc(Nc3ccc(N4CCN(C)CC4)cc3)nc2n1-c1cccc(C(C)(C)O)n1` + CN(C)c1ccc(Nc2c3ccc(NC(=O)CCN4CCCC4)cc3nc3cc(NC(=O)CCN4CCCC4)ccc23)cc1, the IC50 (second compound 0.0316 µM) was 4.71 µM, the IC50 (second compound 0.1 µM) was 3.41 µM and the IC50 (second compound 0.316 µM) was 4.01 µM. It also gave an IC50 (second compound 1 µM) of 3.54 µM, an IC50 (second compound 3.16 µM) of 4.04 µM and an IC50 (second compound 10 µM) of 3.41 µM. It also gave a viability, T/C [1] of 95%, a viability, T/C [2] of 89.5% and a viability, T/C [3] of 85.1%. The viability, T/C [4] was 82.1%, the viability, T/C [5] was 63.3% and the viability, T/C [6] was 24.8%. For the same compound, the viability, T/C [7] was 94.7%, the viability, T/C [8] was 97.9% and the viability, T/C [9] was 85%. For the same compound, the viability, T/C [10] was 69.4%, the viability, T/C [11] was 54.4% and the viability, T/C [12] was 20.9%. For the same compound, the viability, T/C [13] was 99.3%, the viability, T/C [14] was 101% and the viability, T/C [15] was 82.7%. The viability, T/C [16] was 81%, the viability, T/C [17] was 55.7% and the viability, T/C [18] was 24.5%. For the same compound, the viability, T/C [19] was 101%, the viability, T/C [20] was 96.7% and the viability, T/C [21] was 88.6%. It also gave a viability, T/C [22] of 74.9%, a viability, T/C [23] of 54.5% and a viability, T/C [24] of 18.2%. For the same compound, the viability, T/C [25] was 96.2%, the viability, T/C [26] was 97.8% and the viability, T/C [27] was 93.9%. The viability, T/C [28] was 89.3%, the viability, T/C [29] was 58.5% and the viability, T/C [30] was 18.2%. For the same compound, the viability, T/C [31] was 94.3%, the viability, T/C [32] was 90.9% and the viability, T/C [33] was 78.2%. It also gave a viability, T/C [34] of 76.2%, a viability, T/C [35] of 53.1% and a viability, T/C [36] of 13.3%.
`COc1ncnc(C2CC2)c1-c1ncc2cnn(Cc3ccc(-c4nc(C(F)(F)F)cn4C(C)C)cc3)c2n1` + CN(C)c1ccc(Nc2c3ccc(NC(=O)CCN4CCCC4)cc3nc3cc(NC(=O)CCN4CCCC4)ccc23)cc1 was tested, and the IC50 (second compound 0.0316 µM) was over 10 µM, the IC50 (second compound 0.1 µM) was over 10 µM and the IC50 (second compound 0.316 µM) was over 10 µM. The IC50 (second compound 1 µM) was over 10 µM, the IC50 (second compound 3.16 µM) was over 10 µM and the IC50 (second compound 10 µM) was over 10 µM. For the same compound, the viability, T/C [1] was 93.2%, the viability, T/C [2] was 106% and the viability, T/C [3] was 90.6%. It also gave a viability, T/C [4] of 89.5%, a viability, T/C [5] of 103% and a viability, T/C [6] of 98.5%. For the same compound, the viability, T/C [7] was 98.7%, the viability, T/C [8] was 93.5% and the viability, T/C [9] was 97.5%. For the same compound, the viability, T/C [10] was 99.1%, the viability, T/C [11] was 94.8% and the viability, T/C [12] was 96.6%. For the same compound, the viability, T/C [13] was 91.6%, the viability, T/C [14] was 96.1% and the viability, T/C [15] was 82.7%. It also gave a viability, T/C [16] of 97.7%, a viability, T/C [17] of 96.8% and a viability, T/C [18] of 102%. It also gave a viability, T/C [19] of 98.8%, a viability, T/C [20] of 96.3% and a viability, T/C [21] of 98.4%. For the same compound, the viability, T/C [22] was 87.9%, the viability, T/C [23] was 104% and the viability, T/C [24] was 92.7%. It also gave a viability, T/C [25] of 90.4%, a viability, T/C [26] of 98.4% and a viability, T/C [27] of 91.6%. The viability, T/C [28] was 93.5%, the viability, T/C [29] was 96% and the viability, T/C [30] was 99%. For the same compound, the viability, T/C [31] was 89.3%, the viability, T/C [32] was 86.2% and the viability, T/C [33] was 90.6%. The viability, T/C [34] was 96.6%, the viability, T/C [35] was 105% and the viability, T/C [36] was 92.6%.
For `CC(C)n1c(=O)n(C)c2cnc3cc(F)c(-c4ccc(OCCCN5CCCCC5)nc4)cc3c21` + Cc1[nH]c2ccc(F)cc2c1-c1nc2c3cccnc3c3ncccc3c2[nH]1, the IC50 (second compound 0.0316 µM) was over 10 µM, the IC50 (second compound 0.1 µM) was over 10 µM and the IC50 (second compound 0.316 µM) was over 10 µM. For the same compound, the IC50 (second compound 1 µM) was over 10 µM, the IC50 (second compound 3.16 µM) was over 10 µM and the IC50 (second compound 10 µM) was over 10 µM. For the same compound, the viability, T/C [1] was 112%, the viability, T/C [2] was 94.7% and the viability, T/C [3] was 126%. The viability, T/C [4] was 125%, the viability, T/C [5] was 130% and the viability, T/C [6] was 102%. It also gave a viability, T/C [7] of 116%, a viability, T/C [8] of 110% and a viability, T/C [9] of 117%. It also gave a viability, T/C [10] of 123%, a viability, T/C [11] of 139% and a viability, T/C [12] of 100%. For the same compound, the viability, T/C [13] was 98.7%, the viability, T/C [14] was 104% and the viability, T/C [15] was 127%. For the same compound, the viability, T/C [16] was 122%, the viability, T/C [17] was 128% and the viability, T/C [18] was 96.4%. For the same compound, the viability, T/C [19] was 106%, the viability, T/C [20] was 103% and the viability, T/C [21] was 118%. For the same compound, the viability, T/C [22] was 125%, the viability, T/C [23] was 113% and the viability, T/C [24] was 113%. For the same compound, the viability, T/C [25] was 90%, the viability, T/C [26] was 88% and the viability, T/C [27] was 107%. It also gave a viability, T/C [28] of 102%, a viability, T/C [29] of 89.9% and a viability, T/C [30] of 66.7%. It also gave a viability, T/C [31] of 85.1%, a viability, T/C [32] of 83.4% and a viability, T/C [33] of 98.8%. The viability, T/C [34] was 98.8%, the viability, T/C [35] was 99.6% and the viability, T/C [36] was 84.8%.
